Data taken from US8530489B2 (Vertex Pharmaceuticals Incorporated, priority 2006, dated 2013).

biological target: PLK1 (Homo sapiens, UniProt P53350); experiment: PLK1 Inhibition Assay I (radioactive-phosphate incorporation); type: biochemical; conditions: Ki(app); PLK1 Inhibition Assay I or II (table does not say which)
Summary of the method: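 Ki(app) values came from non-linear regression of initial rates after background subtraction, with phosphopeptide measured by phosphocellulose filter binding and scintillation counting. PLK1 at 2 nM was preincubated with compound (typically from 10 μM, 2-fold dilutions) for 10 min, then run 240 min at 25° C with 350 μM [γ-33P]ATP and 450 μM peptide substrate in HEPES pH 7.5 buffer.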

PLK1, sequence (P53350 whole entry): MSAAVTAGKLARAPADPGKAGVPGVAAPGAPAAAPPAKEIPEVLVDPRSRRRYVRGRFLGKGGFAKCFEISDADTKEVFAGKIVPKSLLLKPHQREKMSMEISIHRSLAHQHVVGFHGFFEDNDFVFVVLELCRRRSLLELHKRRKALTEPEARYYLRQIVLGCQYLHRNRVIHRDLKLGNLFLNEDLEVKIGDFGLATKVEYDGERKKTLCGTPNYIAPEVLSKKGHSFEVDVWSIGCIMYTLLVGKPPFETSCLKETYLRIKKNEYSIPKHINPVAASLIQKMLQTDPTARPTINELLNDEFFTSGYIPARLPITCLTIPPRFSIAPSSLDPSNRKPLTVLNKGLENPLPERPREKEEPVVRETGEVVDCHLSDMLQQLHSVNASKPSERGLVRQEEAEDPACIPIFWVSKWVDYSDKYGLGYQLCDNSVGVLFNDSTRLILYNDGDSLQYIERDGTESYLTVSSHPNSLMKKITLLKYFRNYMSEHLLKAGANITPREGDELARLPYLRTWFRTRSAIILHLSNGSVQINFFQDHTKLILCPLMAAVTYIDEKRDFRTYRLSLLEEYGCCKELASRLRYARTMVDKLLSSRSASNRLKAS

Compound | Ki
C[C@@H](Nc1ncc(C#N)c(-c2c[nH]c3ncc(C(F)(F)F)cc23)n1)c1ccc(C(N)=O)cc1 [Compound I-176, 4-((1R)-1-(5-cyano-4-(5-(trifluoromethyl)-1H-pyrrolo[2,3-b]pyridin-3-yl)pyrimidin-2-ylamino)ethyl)benzamide] | < 3 nM
C[C@@H](Nc1ncc(C#N)c(-c2c[nH]c3ncc(C(F)(F)F)cc23)n1)c1ccc(NS(=O)(=O)C2CC2)cc1 [Compound I-168, N-(4-((1R)-1-(5-cyano-4-(5-(trifluoromethyl)-1H-pyrrolo[2,3-b]pyridin-3-yl)pyrimidin-2-ylamino)ethyl)phenyl)cyclopropanesulfonamide] | < 3 nM
CC(Nc1ncc(C#N)c(-c2c[nH]c3ncc(C(F)(F)F)cc23)n1)C1CCN(C(=O)C2CC2)CC1 (centres unmarked) [Compound I-159, 2-(1-(1-(cyclopropanecarbonyl)piperidin-4-yl)ethylamino)-4-(5-(trifluoromethyl)-1H-pyrrolo[2,3-b]pyridin-3-yl)pyrimidine-5-carbonitrile] | < 3 nM
CC(C)[C@@H](CO)Nc1ncc(C#N)c(-c2c[nH]c3ncc(C(F)(F)F)cc23)n1 [Compound I-58, 2-((S)-1-hydroxy-3-methylbutan-2-ylamino)-4-(5-(trifluoromethyl)-1H-pyrrolo[2,3-b]pyridin-3-yl)pyrimidine-5-carbonitrile] | 3 to 40 nM
C[C@@H](Nc1ncc(C#N)c(-c2c[nH]c3ncc(C(F)(F)F)cc23)n1)c1ccc(Br)cc1 [Compound I-33, 2-((R)-1-(4-bromophenyl)ethylamino)-4-(5-(trifluoromethyl)-1H-pyrrolo[2,3-b]pyridin-3-yl)pyrimidine-5-carbonitrile] | > 40 nM
N#Cc1cnc(NCc2cc(F)cc(F)c2)nc1-c1c[nH]c2ncc(C(F)(F)F)cc12 [Compound I-48, 2-(3,5-difluorobenzylamino)-4-(5-(trifluoromethyl)-1H-pyrrolo[2,3-b]pyridin-3-yl)pyrimidine-5-carbonitrile] | > 40 nM
CN1CCC(Nc2ncc(C#N)c(-c3c[nH]c4ncc(C(F)(F)F)cc34)n2)CC1 [Compound I-63, 2-(1-methylpiperidin-4-ylamino)-4-(5-(trifluoromethyl)-1H-pyrrolo[2,3-b]pyridin-3-yl)pyrimidine-5-carbonitrile] | 3 to 40 nM
C[C@H](CO)Nc1ncc(C#N)c(-c2c[nH]c3ncc(C(F)(F)F)cc23)n1 [Compound I-107, 2-((R)-1-hydroxypropan-2-ylamino)-4-(5-(trifluoromethyl)-1H-pyrrolo[2,3-b]pyridin-3-yl)pyrimidine-5-carbonitrile] | 3 to 40 nM
COc1ccc(C(C)Nc2ncc(C#N)c(-c3c[nH]c4ncc(C(F)(F)F)cc34)n2)cn1 (centres unmarked) [Compound I-52, 2-(1-(6-methoxypyridin-3-yl)ethylamino)-4-(5-(trifluoromethyl)-1H-pyrrolo[2,3-b]pyridin-3-yl)pyrimidine-5-carbonitrile] | < 3 nM
CC(Nc1ncc(C#N)c(-c2c[nH]c3ncc(C(F)(F)F)cc23)n1)C1(F)CCN(CC#N)CC1 (centres unmarked) [Compound I-238, 2-(1-(1-(cyanomethyl)-4-fluoropiperidin-4-yl)ethylamino)-4-(5-(trifluoromethyl)-1H-pyrrolo[2,3-b]pyridin-3-yl)pyrimidine-5-carbonitrile] | < 3 nM
C[C@@H](Nc1ncc(C#N)c(-c2c[nH]c3ncc(C(F)(F)F)cc23)n1)C1CCN(C(=O)[C@H](O)C(F)(F)F)CC1 [Compound I-230, 2-((R)-1-(1-((S)-3,3,3-trifluoro-2-hydroxypropanoyl)piperidin-4-yl)ethylamino)-4-(5-(trifluoromethyl)-1H-pyrrolo[2,3-b]pyridin-3-yl)pyrimidine-5-carbonitrile] | < 3 nM
N#Cc1cnc(NC(CO)c2ccccc2)nc1-c1c[nH]c2ncc(C(F)(F)F)cc12 (centres unmarked) [Compound I-75, 2-(2-hydroxy-1-phenylethylamino)-4-(5-(trifluoromethyl)-1H-pyrrolo[2,3-b]pyridin-3-yl)pyrimidine-5-carbonitrile] | 3 to 40 nM
C[C@@H](Nc1ncc(C#N)c(-c2c[nH]c3ncc(C(F)(F)F)cc23)n1)c1ccc(N(C)CCN(C)C)nc1 [Compound I-282, 2-((R)-1-(6-((2-(dimethylamino)ethyl)(methyl)amino)pyridin-3-yl)ethylamino)-4-(5-(trifluoromethyl)-1H-pyrrolo[2,3-b]pyridin-3-yl)pyrimidine-5-carbonitrile] | < 3 nM
CC(=O)Nc1ccc(C(C)Nc2ncc(C#N)c(-c3c[nH]c4ncc(C(F)(F)F)cc34)n2)cc1 (centres unmarked) [Compound I-121, N-(4-(1-(5-cyano-4-(5-(trifluoromethyl)-1H-pyrrolo[2,3-b]pyridin-3-yl)pyrimidin-2-ylamino)ethyl)phenyl)acetamide] | < 3 nM
COC(=O)N1CCC(C(C)Nc2ncc(C#N)c(-c3c[nH]c4ncc(C(F)(F)F)cc34)n2)CC1 (centres unmarked) [Compound I-152, methyl 4-(1-(5-cyano-4-(5-(trifluoromethyl)-1H-pyrrolo[2,3-b]pyridin-3-yl)pyrimidin-2-ylamino)ethyl)piperidine-1-carboxylate] | < 3 nM
CC(Nc1ncc(C#N)c(-c2c[nH]c3ncc(C(F)(F)F)cc23)n1)C1CCN(C(=O)CO)CC1 (centres unmarked) [Compound I-192, 2-(1-(1-(2-hydroxyacetyl)piperidin-4-yl)ethylamino)-4-(5-(trifluoromethyl)-1H-pyrrolo[2,3-b]pyridin-3-yl)pyrimidine-5-carbonitrile] | < 3 nM
N#Cc1cnc(NCC2(O)CCCCC2)nc1-c1c[nH]c2ncc(C(F)(F)F)cc12 [Compound I-49, 2-((1-hydroxycyclohexyl)methylamino)-4-(5-(trifluoromethyl)-1H-pyrrolo[2,3-b]pyridin-3-yl)pyrimidine-5-carbonitrile] | 3 to 40 nM
COc1cccc(CNc2ncc(C#N)c(-c3c[nH]c4ncc(C(F)(F)F)cc34)n2)c1 [Compound I-20, 2-(3-methoxybenzylamino)-4-(5-(trifluoromethyl)-1H-pyrrolo[2,3-b]pyridin-3-yl)pyrimidine-5-carbonitrile] | > 40 nM
CC(=O)C(=O)N1CCC([C@@H](C)Nc2ncc(C#N)c(-c3c[nH]c4ncc(C(F)(F)F)cc34)n2)CC1 [Compound I-231, 2-((R)-1-(1-(2-oxopropanoyl)piperidin-4-yl)ethylamino)-4-(5-(trifluoromethyl)-1H-pyrrolo[2,3-b]pyridin-3-yl)pyrimidine-5-carbonitrile] | < 3 nM
N#Cc1cnc(NCc2ccc(-n3cncn3)cc2)nc1-c1c[nH]c2ncc(C(F)(F)F)cc12 [Compound I-55, 2-(4-(1H-1,2,4-triazol-1-yl)benzylamino)-4-(5-(trifluoromethyl)-1H-pyrrolo[2,3-b]pyridin-3-yl)pyrimidine-5-carbonitrile] | 3 to 40 nM
C[C@@H](Nc1ncc(C#N)c(-c2c[nH]c3ncc(C(F)(F)F)cc23)n1)C1CCN(C(=O)[C@H]2C[C@@H](O)CN2)CC1 [Compound I-262, 2-((R)-1-(1-((2R,4R)-4-hydroxypyrrolidine-2-carbonyl)piperidin-4-yl)ethylamino)-4-(5-(trifluoromethyl)-1H-pyrrolo[2,3-b]pyridin-3-yl)pyrimidine-5-carbonitrile] | < 3 nM
CC(Nc1ncc(C#N)c(-c2c[nH]c3ncc(C(F)(F)F)cc23)n1)c1ccc(N2CCC(F)CC2)nc1 (centres unmarked) [Compound I-199, 2-(1-(6-(4-fluoropiperidin-1-yl)pyridin-3-yl)ethylamino)-4-(5-(trifluoromethyl)-1H-pyrrolo[2,3-b]pyridin-3-yl)pyrimidine-5-carbonitrile] | 3 to 40 nM
CC(=O)N1CCC([C@@H](C)Nc2ncc(C#N)c(-c3c[nH]c4ncc(C(F)(F)F)cc34)n2)CC1 [Compound I-134, 2-((R)-1-(1-acetylpiperidin-4-yl)ethylamino)-4-(5-(trifluoromethyl)-1H-pyrrolo[2,3-b]pyridin-3-yl)pyrimidine-5-carbonitrile] | < 3 nM
CC(C)[C@H](CN1CCOCC1)Nc1ncc(C#N)c(-c2c[nH]c3ncc(C(F)(F)F)cc23)n1 [Compound I-128, 2-((R)-3-methyl-1-morpholinobutan-2-ylamino)-4-(5-(trifluoromethyl)-1H-pyrrolo[2,3-b]pyridin-3-yl)pyrimidine-5-carbonitrile] | 3 to 40 nM
CC(C)[C@@H](O)C(=O)N1CCC([C@@H](C)Nc2ncc(C#N)c(-c3c[nH]c4ncc(C(F)(F)F)cc34)n2)CC1 [Compound I-256, 2-((R)-1-(1-((R)-2-hydroxy-3-methylbutanoyl)piperidin-4-yl)ethylamino)-4-(5-(trifluoromethyl)-1H-pyrrolo[2,3-b]pyridin-3-yl)pyrimidine-5-carbonitrile] | < 3 nM
C[C@@H](Nc1ncc(C#N)c(-c2c[nH]c3ncc(C(F)(F)F)cc23)n1)C1CCN(C(=O)C(O)CN)CC1 (stereo partly drawn) [Compound I-260, 2-((1R)-1-(1-(3-amino-2-hydroxypropanoyl)piperidin-4-yl)ethylamino)-4-(5-(trifluoromethyl)-1H-pyrrolo[2,3-b]pyridin-3-yl)pyrimidine-5-carbonitrile] | < 3 nM
CC(C)(Nc1ncc(C#N)c(-c2c[nH]c3ncc(C(F)(F)F)cc23)n1)C(=O)NCCO [IA-14, 2-(5-cyano-4-(5-(trifluoromethyl)-1H-pyrrolo[2,3-b]pyridin-3-yl)pyrimidin-2-ylamino)-N-(2-hydroxyethyl)-2-methylpropanamide] | > 40 nM
N#Cc1cnc(Sc2ccc(Br)cc2)nc1-c1c[nH]c2ncc(C(F)(F)F)cc12 [II-8, 2-(4-bromophenylthio)-4-(5-(trifluoromethyl)-1H-pyrrolo[2,3-b]pyridin-3-yl)pyrimidine-5-carbonitrile] | > 40 nM
CC[C@@H](O)C(=O)N1CCC([C@@H](C)Nc2ncc(C#N)c(-c3c[nH]c4ncc(C(F)(F)F)cc34)n2)CC1 [Compound I-219, 2-((R)-1-(1-((R)-2-hydroxybutanoyl)piperidin-4-yl)ethylamino)-4-(5-(trifluoromethyl)-1H-pyrrolo[2,3-b]pyridin-3-yl)pyrimidine-5-carbonitrile] | < 3 nM
